From publication PMC12408683 (Archives of Toxicology, 2025)
Read-outs that look alike come from different tables or passages of the source.

What was measured:
[1] = test system: primary human hepatocytes (PHH); assay: Resazurin reduction assay (cytotoxicity) in PHH; conditions: 24 h
Experimental: (§1) Both cell lines were cultivated in DMEM high glucose without pyruvate (Gibco, Thermo Fisher Scientific, Waltham MA, USA) supplemented with 10% foetal calf serum (FCS, Pan-Biotech, Aidenbach, Germany) and 1% penicillin/streptomycin (Gibco, Thermo Fisher Scientific, Waltham MA, USA). […] Cryopreserved PHH (BioIVT, Brussels, Belgium) pooled from 10 donors (5 × females, 5 × males) were handled according to the protocol of the manufacturer. […] Cells were then diluted, plated for the respective assays in collagen-coated plates, and allowed to adhere for 3 h.
PHH were seeded in 96-well plates precoated with collagen at a cell density of 7 × 10^4/well, left to adhere for 3 h, and treated as described above for 24 h. After treatment, medium was discarded and replaced by resazurin reaction solution containing 44 µM resazurin in NaCl/Pi buffer (1.1 mM KH2PO4, 154 mM NaCl, and 3.7 mM Na2HPO4∙H2O) diluted 1:10 in medium without FCS and P/S. The cells were then incubated for 1.5 h and fluorescence was measured using a Spark® microplate reader (Tecan, Männedorf, Switzerland) with an excitation at 544 nm and emission at 590 nm. The cell viability was calculated relative to the negative control (set to 100%).

[2] = test system: HepaRG cells and PRH; parameters: method as in Yang et al. 2020; conditions: 50 µM ES or 1′OH-ES; ref Yang et al. 2020; cited from earlier work
[3] = test system: primary human hepatocytes (PHH); assay: Western blot of γH2AX and p53 in primary human hepatocytes; conditions: 24 h; for γH2AX induction vs. control: selected concentrations
Experimental: as §1
To this end, 5 × 10^5 cells were seeded in 3.5-cm dishes to adhere overnight. […] Proteins were separated by SDS-PAGE followed by the transfer onto a nitrocellulose membrane using the wet blot method. The successful transfer was confirmed by Ponceau S staining of the membrane before blocking with 5% non-fat dry milk in Tris-buffered saline with Tween-20 (MP-TBS-T). Subsequently, the membrane was incubated with the respective primary antibodies overnight at 4 °C. The membranes were washed three times for 5 min with TBS-T before incubating with the respective secondary antibody coupled with horseradish peroxidase. The detection was carried out using the Western Lightning Plus-ECL reagent (Perkin Elmer, Waltham MA, USA) with the c300 chemiluminescence imager (Azure Biosystems, Dublin CA, USA). The used primary and secondary antibodies are detailed in supplementary Table S3.

[4] = test system: HepG2 cells; parameters: method as in Yang et al. 2022; conditions: MTT assay; ref Yang et al. 2022; cited from earlier work
[5] = test system: HepG2 cells; assay: Resazurin reduction assay (cytotoxicity) in HepG2 cells; conditions: for EC50: read-out: EC50 (cell viability)
[6] = test system: parental HepG2 cells; parameters: method as in Yang et al. 2020; conditions: ref Yang et al. 2020; cited from earlier work
[7] = test system: HepG2-CYP1A2 cells; conditions: ES 24 h + 72 h recovery; not statistically significant; concentration not given
Experimental: Following the recovery time, the cells were detached, harvested by centrifugation (300 g, 5 min), and washed with PBS. […] The fluorescent dye was then activated by photolysis (60 W lightbulb, 30 cm spacing) for 20 min before addition of 9 mL PBS to remove unbound dye. […] 1.5 × 10^4 cells were analysed using the BD FACSDiva software (BD Biosciences, Heidelberg, Germany). A schematic overview of the gating strategy is provided in the supporting information, Fig. 3.

[8] = test system: mice; parameters: method as in Suzuki et al. 2012b; conditions: up to 300 mg/kg bw and day over 13 weeks; ref Suzuki et al. 2012b; cited from earlier work

For `C=CC(O)c1ccc(OC)cc1` (stereo not shown) [1′OH-ES, 1′-hydroxyestragole], the EC50 ([1]; read-out: EC50 (cell viability)) is listed as 107 µM, the “E3′-N^2-dG levels vs ES” value [2] is listed as 33–40 fold and the p53 levels [3] is listed as “slightly declined”. For the same compound, the “γH2AX induction vs. control” value [3] was “threefold”, the EC50 [4] was 102 µM and the cell viability ([5]; 50 µM 1′OH-ES, 24 h treatment + 72 h recovery) was “above 70%”. It also gave an EC50 ([5]; 24 h) of 43 µM and an EC50 ([5]; 72 h) of 27 µM.

In the case of `C=CCc1ccc(OC)cc1` [ES, estragole], the viability ([1]; test concentrations up to 5 mM) is given as “did not affect viability”, the DNA adducts [6] is given as “failed to cause DNA adducts” and the “MN formation, increase vs. solvent control (flow cytometry)” value [7] is given as 1.6 fold. For the same compound, the “γH2AX induction vs. control” value [3] was 1.4 fold and the clastogenicity [8] was “clastogenicity was not detected”.
